Results published in paper PMC8584985, “Characterization of a new type of neuronal 5-HT G- protein coupled receptor in the cestode nervous system” (PLoS ONE, 2021).

Assays:
Format in all cases: cell-based, Echinococcus canadensis
Eca-5-HT1a [1] = assay: FLIPR calcium assay, agonist concentration-response
Eca-5-HT1a [2] = test system: T1, Eca-5-HT1a; assay: FLIPR calcium assay (Fluo-4), HEK293-GNA15 cells transiently expressing the receptor; a stable line gave EC50 […]
T1 construct: full-length, human codon optimized cDNA in HEK293-GNA15 cells

Eca-5-HT1a [3] = test system: T2, Eca-5-HT1a; assay: FLIPR calcium assay on mutant receptor
T2 construct: full-length mutant in HEK293-Gα15 cells

SMILES | EC50 (Eca-5-HT1a [1]) | EC50 (Eca-5-HT1a [2]) | EC50 (Eca-5-HT1a [3])
COc1ccc2[nH]cc(CCN)c2c1 [5-MTT, 5-methoxytryptamine] | 0.098 ± 0.05 µM | – | –
NCCc1c[nH]c2ccc(O)cc12 [serotonin] | – | 0.00774 ± 0.00063 µM | 11.5 µM
CC(N)Cc1c[nH]c2ccc(O)cc12 (stereo not drawn) [α-MTS, α-methylserotonin] | 2.73 ± 0.73 µM | – | –
